These results are taken from US20040197855A1, “Test system for determining gene toxicities” (priority 2001, published 2004).

The test system of one data set is GalER-VP. Briefly: Estradiol-inducible expression of I-SceI meganuclease in KMV cells. The class given is cell-based, human. The conditions noted are these: KMV clones with genomic pGC-Sce; Gal4 recognition sequence promoter. From the text: In order to achieve controlled meganuclease expression because of the antiproliferative effect of DSBs, the extremely reliable, β-estradiol-inducible expression system was selected according to a preferred embodiment of the invention (Braselmann, S. et al. (1993) Proc. Natl. Acad. Sci. USA 90: 1657-1661; Dudenhöffer, C. (1999) Oncogene 18: 5773-5784). The expression system couples the so-called Gal4ER transcription factor to an expression cassette controlled by a Gal4ER-responsive promoter (compare FIG. 2). Gal4ER represents a fusion protein of the DNA binding domain of the Gal4 transcription factor with the strong, viral VP16 transactivator domain and a β-estradiol binding domain of the human β-estradiol receptor, making Gal4ER functionally inducible as transcription factor by β-estradiol. This principle of conditional expression permits an inducible increase in protein expression by at least one order of magnitude. […] Inducible I-SceI expression was detected in Western blot experiments. […]

A further data set has as its system Salmonella typhimurium. Particulars: cited from earlier work.
A further data set has as its system mice. The conditions noted are these: cited from earlier work.
Another data set deals with rats. Particulars: cited from earlier work.
The subject of data set [1] is yeast and mammalian cells. Particulars: cited from earlier work.

SMILES strings stand for the structures.

On to `C[C@]12CC[C@@H]3c4ccc(O)cc4CC[C@H]3[C@@H]1CC[C@@H]2O` [β-estradiol], for which the “lowest concentration for complete promoter induction” value with GalER-VP came to 50 nM.
`Cc1ccccc1N` [o-toluidine]: in the data set with Salmonella typhimurium, the “result in the Ames assay” value is listed as “negative”. In addition, in the data set with mice, the tumours in mice entry is “cause tumours”. The tumours in rats entry in the data set on rats is “cause tumours”. In addition, the “recombination events leading to deletions” value in data set [1] is reported as “triggered”.
